Test results from patent publication US9205137B2, “Maturation of gastrointestinal tract” (ANARA AB, priority 2010, dated 2015).

Columns and labels:
suckling rats [1] = assay: Set I: intestinal morphology of distal SI, Example 3; assay type: in vivo, Rattus norvegicus; conditions: distal part of SI, in words
Procedure: All samples collected for histology were fixed with Bouin's solution for 24 hours and then stored in 70% ethanol, dehydrated, embedded into the paraffin and then cut into sections with 5 μm thickness. The tissue sections were transferred onto the slides, rehydrated and stained with H&E according to the standard technique. After mounting under cover slips samples were examined using light microscopy to estimate ratio between total length of the villus and length of the adult type enterocytes using ImageJ program.

suckling rats [2] = assay: Papain vs microbial protease: macromolecule absorption (BSA, BIgG in plasma), Example 8; assay type: in vivo, Rattus norvegicus; conditions: day 17, 3 hours after feeding, in words (FIG. 14)
Excerpt: (§1) The litter size for each dam was limited to 12 or 13 pups, to reduce variability.
(§2) Suckling pups were divided into 3 groups depending on the treatments; microbial protease as a positive control, water as negative control and enzyme from papaya fruit (papain) (in total; protease=7, papain=8, control=7). The enzymes are available in the market in form of powders and were resolved in distilled water prior to stomach feeding during 14-16 d of age. The administered dose for each enzyme was 10000 USP/animal. The volume of administered enzymes and water (for control groups) was 0.01 ml/g b.wt. Prior to the feeding procedure, the pups were weighed. […] Three hours later, the pups were anaesthetized and organs were dissected out for analyses.

suckling rats [3] = assay: Set I: body weight, GI and lymphoid organ weights, stomach pH after individual enzymes or mixture, Example 3
Procedure: All experiments were performed in young suckling rats by feeding them from 14 days of age via stomach tube for 3 continuous days (ones a day). One day after last treatment rats were euthanized and plasma and organs proceeded to study structural and functional changes of gastrointestinal system.
The pups were kept with their dam until dissection day (day 17).
In this set suckling pups were divided into five groups; control (water) amylase 10 000 USP/rat/day, lipase 4 000 USP/rat/day, protease 15 000 USP/rat/day, and mixture of these enzyme with corresponding activities per rat and day. This study was evaluating the effects of different pancreatic-like enzymes on the gut maturation and functioning and had 3 individual litters; n=12, n=10 and n=13, totally n=7 pups per each group. Each of the enzymes (Amylase, Protease and Lipase) (Sigma Aldrich) was available in the powder form and was resolved in distilled water prior to stomach feeding during days 14, 15 and 16. The volume of administered enzymes and distilled water (for control groups) was 0.01 ml/g BW. Each time, prior to the feeding procedure, the pups were weighed. […] Then 3 hours later, the pups were sedated with CO2 and anaesthetized by subcutaneous injection with a mixture of ketamine (Ketalar®, Pfizer, New York, USA, NaCl and azaperone (Stresnil®, Janssen Pharmaceutica, Beerse, Belgium), 0.01 ml/g BW. After opening the abdomen of the rats, 1 ml of blood was collected from heart by using syringes containing protease inhibitor and EDTA (50 μl) as anticoagulant and was transferred into ice-chilled tubes. After this, the pancreas was immediately dissected and rinsed with cold 0.9% NaCl, weighted and stored at −70 C. The SI was removed and its length was measured then divided into two halves, proximal and distal. Each segment was flushed out with cold 0.9% NaCl to clean the lumen and was then weighed separately. […] The stomach was removed and its content was collected into the tube (for measuring its pH) and frozen. Then cecum was dissected out, opened, rinse and weighed as well as liver and lymphoid organs spleen and thymus were dissected and weighted.
The contents of the stomach were de-frozen and then resolved with 1 ml of cold 0.9% NaCl. After resolving, they were centrifuged and the pH was measured in the supernatant using pH-meter.
All data are presented as mean±standard deviation (SD). Statistical comparisons between each group and control group were performed using the t-test. Results were considered as significant when P<0.05.

suckling rats [4] = assay: Papain vs microbial protease: body and organ weight, Example 8; assay type: in vivo, Rattus norvegicus
Excerpt: as §1, §2

suckling 14 d old rats = assay: Exocrine pancreatic function (trypsin activity in pancreatic homogenates), Example 6; assay type: in vivo, rat; conditions: 3 d oral gavage, in words (FIG. 10)
Excerpt: Treated groups were compared to control, *p<0.05.
The same rat model as in Experiments 3-5 was used.
The effect of microbial-derived enzymes with pancreatic activity: protease, lipase, amylase and their mixture on exocrine pancreatic secretion after 3 d of oral gavage to suckling 14 d old rats (see experiment 3-5 above). Treated groups were compared to control, *p<0.05

suckling rats [5] = assay: Papain vs microbial protease: intestinal disaccharidase activity in proximal SI, Example 8; assay type: in vivo, Rattus norvegicus; conditions: proximal part of SI, in words (FIG. 13)
Excerpt: as §1, §2
The activities of the brush-border enzymes lactase, maltase and sucrase were analyzed in the proximal part of the SI in groups treated with papain and protease.

suckling rats [6] = assay: Set I: plasma concentration of marker molecules BSA and BIgG (macromolecule absorption), Example 3; assay type: in vivo, Rattus norvegicus; conditions: 3 hours after marker feeding, day 17, in words (FIG. 6)
Excerpt: The plasma level of marker molecules was quantified by using immunoassay rocket electrophoresis and SRI (single radial immunodiffusion) for plasma BSA and BIgG respectively.

suckling rats [7] = assay: Set I: brush-border disaccharidase activity in proximal SI, Example 3; assay type: in vivo, Rattus norvegicus; conditions: proximal part of SI, in words (FIG. 5)
Procedure: The proximal samples of the SI were de-frozen and weighted and then homogenized with 9 parts of 0.9% NaCl (9 w/v). The homogenates (50 μl diluted samples) were incubated with the appropriate disaccharide (50 μl of 0.056M sucrose, maltose and lactose) for 1 hour at 37° C. After this, the liberated glucose was determined by adding glucose oxidase reagent (Sigma Chemicals), and incubated for 30 minutes. Then samples were transferred into the 96-well plate in triplication and the absorbance was measured at 450 nm. To measure the protein contents of the homogenates, Lowry method, was used, where BSA (Bovine Serum Albumin) was used as a standard. The results are presented as specific activity units per mg of protein (u/mg).

[8] = 10000 USP/animal, days 14-16, day 17

What does the source list for “Proteinase from Aspergillus melleus [Protease]”?
replacement of vacuolated enterocytes by adult type enterocytes (suckling rats [1]): all of the vacuolated enterocytes were replaced with adult type enterocytes; uptake of macromolecules, BIgG absorption (suckling rats [2]): significantly lower; Body weight (suckling rats [3]; 3 days treatment, day 17): 33.6 ± 1.9 gr; Cecum (suckling rats [3]; 3 days treatment, day 17): 4.0 ± 0.5 mg/g BW; Distal SI (suckling rats [3]; 3 days treatment, day 17): 17.8 ± 2.5 mg/g BW; Liver (suckling rats [3]; 3 days treatment, day 17): 35.8 ± 2.5 mg/g BW; Pancreas (suckling rats [3]; 3 days treatment, day 17): 4.3 ± 0.4 mg/g BW; Proximal SI (suckling rats [3]; 3 days treatment, day 17): 24.7 ± 3.5 mg/g BW; SI length (suckling rats [3]; 3 days treatment, day 17): 1.7 ± 0.1 cm/g BW; Spleen (suckling rats [3]; 3 days treatment, day 17): 3.4 ± 0.5 mg/g BW; Stomach (suckling rats [3]; 3 days treatment, day 17): 7.2 ± 0.7 mg/g BW; Thymus (suckling rats [3]; 3 days treatment, day 17): 3.96 ± 0.4 mg/g BW; diarrhoea (suckling rats [3]; after receiving the first dose): diarrhoea observed after receiving the first dose; pH (suckling rats [3]; stomach contents, day 17): 3.5 ± 0.3; Body weight (suckling rats [4]; [8]): 34.8 ± 3.31 gr; Cecum (suckling rats [4]; [8]): 2.89 ± 0.47 mg/g BW; Distal SI (suckling rats [4]; [8]): 15.2 ± 2.3 mg/g BW; Liver (suckling rats [4]; [8]): 32.22 ± 1.37 mg/g BW; Pncrease (suckling rats [4]; [8]): 3.87 ± 0.34 mg/g BW; Proxima SI (suckling rats [4]; [8]): 20.24 ± 2.37 mg/g BW; SI length (suckling rats [4]; [8]): 1.59 ± 0.18 cm/g BW; Spleen (suckling rats [4]; [8]): 3.18 ± 0.23 mg/g BW; Stomach (suckling rats [4]; [8]): 6.71 ± 0.41 mg/g BW; Thymus (suckling rats [4]; [8]): 4.95 ± 0.93 mg/g BW; effect on body growth (suckling rats [4]; dose 10 000 USP, days 14 to 17, in words (FIG. 12)): No effect; stimulation of the pancreatic function (suckling 14 d old rats): most efficient enzyme for stimulation of the pancreatic function; activity of maltase compared to control (suckling rats [5]): significantly increased; activity of sucrase compared to control (suckling rats [5]): significantly increased; uptake of marker molecule BIgG to plasma (suckling rats [6]): significantly lower; uptake of marker molecule BSA to plasma (suckling rats [6]): significantly lower; lactase activity (suckling rats [7]): decreased; maltase activity (suckling rats [7]): significantly increased; sucrase activity (suckling rats [7]): significantly increased
